Literature values in patent publication US9034383B2 (NanoRx, Inc., priority 2010, dated 2015).

Assays:
rats = settings: exercise-trained rats run to exhaustion on a treadmill; Kim et al. 2003
angiogenesis = settings: Thippeswamy 2008

In the case of `CCCCCCCCCCCCCCCCCCCCCCCCCCCCO` [pure octacosanol, octacosanol], the ergogenic properties (rats) is listed as “sparing of muscle glycogen stores and increasing the oxidative capacity in the muscle”, the “neurologic and pulmonary function” value (amyotrophic lateral sclerosis patients, double-blind placebo-controlled crossover, Fallat 1986) is listed as “did not show any benefits” and the “neutral sterol and bile acid concentration in feces” value (humans, Jahreis 2008) is listed as “decreases”. The angiogenesis (angiogenesis) was “inhibits angiogenesis”.
